# Calls of active or inactive are those of the source. The calls are words filed in the database; no cut-off is given here.
# Tests used:
# HDF [1] = assay: Induction of JNK phosphorylation in HDF cells at 10 uM incubated at 0.5 to 24 hrs by Western blot analysis; type: cell-based; conditions: Homo sapiens, filed as activator, time 0.5-24 hrs
# NHDF = assay: Cytotoxicity against HDF cells assessed as reduction in cell viability at 10 uM incubated for 24 to 48 hrs by MTT assay; type: toxicity, cell-based; conditions: human, time 24-48 hrs
# [2] = molecular target: Mitogen-activated protein kinase; ERK1/ERK2 (Homo sapiens) (UniProt P27361+P28482); assay: Induction of ERK1/2 phosphorylation in HDF cells at 10 uM incubated at 0.5 to 24 hrs by Western blot analysis; type: cell-based; conditions: filed as activator, time 0.5-24 hrs
# HDF [3] = assay: Induction of p38 phosphorylation in HDF cells at 10 uM incubated at 0.5 to 24 hrs by Western blot analysis; type: cell-based; conditions: Homo sapiens, time 0.5-24 hrs
# Sequence of Mitogen-activated protein kinase; ERK1/ERK2 (Homo sapiens) (P27361 whole entry, looked up): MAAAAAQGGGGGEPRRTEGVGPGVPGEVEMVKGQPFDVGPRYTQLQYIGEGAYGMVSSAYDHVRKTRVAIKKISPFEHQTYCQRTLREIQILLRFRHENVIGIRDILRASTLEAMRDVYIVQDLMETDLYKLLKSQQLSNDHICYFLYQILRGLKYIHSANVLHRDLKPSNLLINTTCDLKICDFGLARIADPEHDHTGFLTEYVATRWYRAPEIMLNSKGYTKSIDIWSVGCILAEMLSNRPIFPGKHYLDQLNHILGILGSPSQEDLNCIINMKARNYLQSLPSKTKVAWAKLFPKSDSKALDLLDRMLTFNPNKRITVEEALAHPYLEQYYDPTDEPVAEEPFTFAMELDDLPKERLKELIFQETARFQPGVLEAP
# Sequence of Mitogen-activated protein kinase; ERK1/ERK2 (Homo sapiens) (P28482 whole entry, looked up): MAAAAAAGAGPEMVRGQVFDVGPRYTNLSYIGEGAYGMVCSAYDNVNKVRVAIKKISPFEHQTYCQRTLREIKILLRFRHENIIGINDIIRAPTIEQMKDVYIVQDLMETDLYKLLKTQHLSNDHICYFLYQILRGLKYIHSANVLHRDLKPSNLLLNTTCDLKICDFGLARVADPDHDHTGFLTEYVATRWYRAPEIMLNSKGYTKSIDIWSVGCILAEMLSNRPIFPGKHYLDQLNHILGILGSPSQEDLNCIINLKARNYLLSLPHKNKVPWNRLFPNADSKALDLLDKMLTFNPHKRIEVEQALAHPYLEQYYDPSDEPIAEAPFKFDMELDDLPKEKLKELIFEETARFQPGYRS
SMILES,Activity (HDF [1]),Activity (NHDF),Activity [2],Activity (HDF [3])
CC(=O)O[C@@H]1[C@H](O)C2=C(C(=O)N([C@@H](CC(C)C)C(=O)O)C2)[C@@]2(C)CCCC(C)(C)[C@H]12,Active,Non-Toxic,Active,inactive
CC(=O)O[C@@H]1[C@H](O)C2=C(C(=O)N(CC(=O)O)C2)[C@@]2(C)CCCC(C)(C)[C@H]12,Active,Non-Toxic,Active,inactive
CC(=O)O[C@@H]1[C@H](O)C2=C(C(=O)N([C@H](C(=O)O)[C@@H](C)O)C2)[C@@]2(C)CCCC(C)(C)[C@H]12,Active,Non-Toxic,Active,inactive
CC[C@H](C)[C@@H](C(=O)O)N1CC2=C(C1=O)[C@@]1(C)CCCC(C)(C)[C@@H]1[C@H](OC(C)=O)[C@@H]2O,Active,Non-Toxic,Active,inactive
CC(=O)O[C@@H]1[C@H](O)C2=C(C(=O)N([C@H](C(=O)O)C(C)C)C2)[C@@]2(C)CCCC(C)(C)[C@H]12,Active,Non-Toxic,Active,inactive
CC(=O)O[C@@H]1[C@H](O)C2=C(C(=O)N([C@@H](Cc3ccccc3)C(=O)O)C2)[C@@]2(C)CCCC(C)(C)[C@H]12,Active,Non-Toxic,Active,inactive
CC(=O)O[C@@H]1[C@H](O)C2=C(C(=O)N([C@@H](C)C(=O)O)C2)[C@@]2(C)CCCC(C)(C)[C@H]12,Active,Non-Toxic,Active,inactive

# Source: ChEMBL document CHEMBL5579902, “Medullins A-H, Sesquiterpenes from Perenniporia medulla-panis, and Their Cellular Signaling Mechanism in HDF Cells” (J Nat Prod, 2024)
